Here are results for 40 compounds from patent US6472389B1, “Pyrrolo[1,2-b] pyridazine derivatives having sPLA2 inhibitory effect” (Shionogi & Co., Ltd., priority 1998, dated 2002).

Series [1] addresses T1, recombinant human secretory phospholipase A2 (Homo sapiens, UniProt P14555).
T1 sequence (P14555 21-144): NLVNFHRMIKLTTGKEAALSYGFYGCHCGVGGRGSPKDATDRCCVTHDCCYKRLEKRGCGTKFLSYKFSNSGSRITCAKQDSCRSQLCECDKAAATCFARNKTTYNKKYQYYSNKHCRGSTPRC
Briefly: Inhibition test of human secretory phospholipase A2 (chromogenic assay, 96 well microtiterplate). It counts as biochemical. The settings on record: sPLA2 50 ng/well, 40° C., 30 minutes, OD 405 nm, substrate 1,2-bis(heptanoylthio)-1,2-dideoxy-sn-glycero-3-phospholylcholine. An excerpt: Inhibition Test of Human Secretory Phospholipase A2
In order to identify and evaluate an inhibitor of recombinant human secretory phospholipase A2, the following chromogenic assay is utilized. The assay herein has been applied for high volume screening wherein 96 well microtiterplate is used. A general explanation for such assay is described in “Analysis of Human Synovial Fluid Phospholipase A2 on Short Chain Phosphatidylcholine-Mixed Micelles: Development of a Spectrophotometric Assay Suitable for a Micortiterplate Reader” (Analytical Biochemistry, 204, pp 190-197, 1992 by Laure. J. Reynolds. Lori L. Hughes and Edward A. Dennis: the disclosure of which is incorporated herein for reference.
Bovine Serum Albumin (fatty acid free) (1 g/L) (Sigma A-7030)
pH 7.5 (adjusted with NaOH)
pH 4.5 (adjusted with acetic acid)
1 mg of sPLA2 is dissolved in 1 ml of an enzyme buffer. Thereafter, the solution is maintained at 4° C.
In the assay, 5 μl of the solution is diluted with 1995 μl of the reaction buffer to be used.
198 mg of 5,5′-dithiobis-2-[…] (manufactured by Wako Pure Chemicals) is dissolved in 100 ml of H2O
100 mg of racemic 1,2-bis(heptanoylthio)-1,2-dideoxy-sn-glycero-3-phospholylcholine is dissolved in 1 ml of chloroform.
624.9 mg of Triton-X 100 is dissolved in the reaction buffer.
Enzyme Reaction: for 1 plate of Microtiterplate
1) 0.106 ml of the substrate solution is put in a centrifugal tube, and nitrogen gas is jetted to remove the solvent. 0.54 ml of Triton-X 100 is added thereto, the mixture is stirred, thereafter it is sonified in a bath type sonification to dissolve. To the resulting product are added 17.8 m1l of the reaction buffer and 0.46 ml of DTNB, and 0.18 ml each of the admixture is poured to wells of the 96 well microtiterplate.
2) 10 μl of a test compound (or solvent blank) are added in accordance with alignment of plates which has been previously set.
3) Incubation is effected at 40° C. for 15 minutes.
4) 20 μl of an enzyme solution (sPLA2) which has been previously diluted (50 ng/well) are added to start reaction (40° C., 30 minutes).
5) Changes in absorbancy for 30 minutes are measured by a plate reader, and inhibition activity was calculated (OD: 405 nm).
6) IC50 was determined by plotting log concentration with respect to inhibition values within 10% to 90% inhibiting range.

Broadly, the melting point is the temperature, or range, at which the solid turns liquid. By IC50 is commonly meant the point on the concentration scale where inhibition reaches its midpoint.

In the case of `CCc1cc(OCC(=O)OC)c2c(C(=O)C(N)=O)c(C)c(Cc3ccccc3)n2n1` [Compound I-40], the melting point was in the range of 194 to 196 °C. Besides, the concentration for half-maximal inhibition (IC50) in series [1] came out at 99 nM.
For `CCCc1cc(OCC(=O)OC)c2c(C(=O)C(N)=O)c(C)c(Cc3ccccc3)n2n1` [Compound I-41], in that order: 210 to 211 °C and 64 nM.
For `COC(=O)COc1cc(Cc2ccccc2)nn2c(Cc3ccccc3)c(C)c(C(=O)C(N)=O)c12` [Compound I-42], in that order: 204 to 206 °C and 26 nM.
On the same counts, the results for `COC(=O)COc1cc(CSC)nn2c(Cc3ccccc3)c(C)c(C(=O)C(N)=O)c12` [Compound I-43] are 210 to 211 °C and 154 nM.
With `COCc1cc(OCC(=O)OC)c2c(C(=O)C(N)=O)c(C)c(Cc3ccccc3)n2n1` [Compound I-44], the melting point is 228 to 229 °C (dec.). The IC50 in series [1] is 315 nM.
With `COC(=O)COc1cc(-c2ccccc2)nn2c(Cc3ccccc3)c(C)c(C(=O)C(N)=O)c12` [Compound I-45], the melting point was 251 to 252 °C. In series [1], the IC50 amounted to 30 nM.
In the case of `CCc1c(C(=O)C(N)=O)c2c(OCC(=O)OC)cc(COc3ccc(OC)cc3)nn2c1Cc1ccccc1` [Compound I-46], the melting point was in the range of 167 to 168 °C. Also, the IC50 in series [1] came to 268 nM.
For `CCc1c(C(=O)C(N)=O)c2c(OCC(=O)OC)cc(COc3ccc(OC)c(OC)c3)nn2c1Cc1ccccc1` [Compound I-47], in that order: 176 to 179 °C and 618 nM.
On the same counts, the results for `CCc1c(C(=O)C(N)=O)c2c(OCC(=O)OC)cc(COc3ccc(C)cc3)nn2c1Cc1ccccc1` [Compound I-48] are 191 to 192 °C and 211 nM.
For `CCc1c(C(=O)C(N)=O)c2c(OCC(=O)OC)cc(CN3C(=O)CCC3=O)nn2c1Cc1ccccc1` [Compound I-49], in that order: 188 to 189 °C and 7810 nM.
For `CCc1c(C(=O)C(N)=O)c2c(OCC(=O)OCc3ccccc3)cc(CN=[N+]=[N-])nn2c1Cc1ccccc1` [Compound I-50], the melting point fell in the range of 178 to 179 °C. Besides, the 50% inhibitory concentration (IC50) in series [1] turned out to be 526 nM.
With `COC(=O)COc1cc(Cc2ccccc2)nn2c(C)c(C)c(C(=O)C(N)=O)c12` [Compound I-51], the melting point lay in the range of 199 to 201 °C. Further, in series [1], the IC50 is 25600 nM.
`COC(=O)COc1cc(C)nn2c(Cc3ccccc3-c3ccc(F)cc3)c(C)c(C(=O)C(N)=O)c12` [Compound I-52] gave a melting point of 194 to 196 °C. For the same compound, the IC50 in series [1] came out at 93 nM.
The compound `COC(=O)COc1cc(C)nn2c(Cc3ccc(-c4ccccc4)cc3)c(C)c(C(=O)C(N)=O)c12` [Compound I-53] had a melting point of 234 to 236 °C. Also, the half-inhibitory concentration (IC50) in series [1] worked out at 3740 nM.
For `CCc1c(C(=O)C(N)=O)c2c(OCC(=O)OC)cc(C)nn2c1Cc1ccccc1-c1ccc(F)cc1` [Compound I-54], in that order: 190 to 192 °C and 148 nM.
On the same counts, the results for `CCOC(=O)COc1cc(C)nn2c(Cc3ccccc3)c(C)c(C(=O)C(N)=O)c12` [Compound I-55] are 197 to 199 °C and 56 nM.
For `Cc1cc(OCC(=O)OCCN2CCOCC2)c2c(C(=O)C(N)=O)c(C)c(Cc3ccccc3)n2n1` [Compound I-56], in that order: 160 to 161 °C and 52 nM.
Regarding `CCc1c(C(=O)C(N)=O)c2c(OCC(=O)O)cc(COc3ccccc3)nn2c1Cc1ccccc1` [Compound I-57], the melting point was 218 to 220 °C (dec.). Moreover, in series [1], the 50% inhibitory concentration (IC50) is 7 nM.
On the same counts, the results for `CCc1c(C(=O)C(N)=O)c2c(OCC(=O)O)cc(CSc3ccccc3)nn2c1Cc1ccccc1` [Compound I-58] are 226 to 228 °C (dec.) and 9 nM.
For `CCc1c(C(=O)C(N)=O)c2c(OCC(=O)O)cc(CN3CCCC3)nn2c1Cc1ccccc1` [Compound I-59], in that order: 228 to 231 °C (dec.) and 1080 nM.
For `CCc1c(C(=O)C(N)=O)c2c(OCC(=O)O)cc(CN3CCOCC3)nn2c1Cc1ccccc1` [Compound I-60], in that order: 167 to 168 °C and 365 nM.
Turning to `CCc1c(C(=O)C(N)=O)c2c(OCC(=O)O)cc(CN3CCN(C)CC3)nn2c1Cc1ccccc1` [Compound I-61], the melting point is 249 to 250 °C (dec.). Moreover, in series [1], the IC50 stood at 2610 nM.
On the same counts, the results for `CCc1c(C(=O)C(N)=O)c2c(OCC(=O)O)cc(-c3ccc(F)cc3)nn2c1Cc1ccccc1` [Compound I-62] are 245 to 248 °C (dec.) and 12 nM.
For `CCc1c(C(=O)C(N)=O)c2c(OCC(=O)O)cc(-c3ccc(F)cc3)nn2c1Cc1ccccc1` [Compound I-63], in that order: 250 to 253 °C (dec.) and 6 nM.
On to `CCc1c(C(=O)C(N)=O)c2c(OCC(=O)O)cc(-c3ccc(OC)cc3)nn2c1Cc1ccccc1` [Compound I-64], for which the melting point is 248 to 250 °C (dec.). For the same compound, the IC50 in series [1] was 7 nM.
For `CCc1c(C(=O)C(N)=O)c2c(OCC(=O)O)cc(C)nn2c1Cc1ccccc1-c1ccccc1` [Compound I-65], in that order: 218 to 219 °C (dec.) and 7 nM.
On the same counts, the results for `CCc1c(C(=O)C(N)=O)c2c(OCC(=O)O)cc(C)nn2c1Cc1cccc(Oc2ccccc2)c1` [Compound I-66] are 188 to 190 °C and 6 nM.
As for `CCc1c(C(=O)C(N)=O)c2c(OCC(=O)O)cc(C3CCCCC3)nn2c1Cc1ccccc1` [Compound I-67], the melting point is 272 to 275 °C (dec.). In addition, in series [1], the IC50 turned out to be 16 nM.
On the same counts, the results for `CCc1c(C(=O)C(N)=O)c2c(OCC(=O)O)cc(C3CCCC3)nn2c1Cc1ccccc1` [Compound I-68] are 250 to 252 °C (dec.) and 25 nM.
Take `CCc1c(C(=O)C(N)=O)c2c(OCC(=O)O)cc(-c3ccc4c(c3)OCO4)nn2c1Cc1ccccc1` [Compound I-69]: the melting point is 240 to 243 °C (dec.). In addition, the IC50 in series [1] was found to be 8 nM.
For `CCc1cc(OCC(=O)O)c2c(C(=O)C(N)=O)c(C)c(Cc3ccccc3)n2n1` [Compound I-70], in that order: 200 to 201 °C and 9 nM.
On the same counts, the results for `CCCc1cc(OCC(=O)O)c2c(C(=O)C(N)=O)c(C)c(Cc3ccccc3)n2n1` [Compound I-71] are 204 to 205 °C and 8 nM.
On the same counts, the results for `Cc1c(C(=O)C(N)=O)c2c(OCC(=O)O)cc(Cc3ccccc3)nn2c1Cc1ccccc1` [Compound I-72] are 245 to 247 °C (dec.) and 9 nM.
Consider `CSCc1cc(OCC(=O)O)c2c(C(=O)C(N)=O)c(C)c(Cc3ccccc3)n2n1` [Compound I-73], for which the melting point was 228 to 229 °C (dec.). Further, the IC50 in series [1] was 19 nM.
Compound `COCc1cc(OCC(=O)O)c2c(C(=O)C(N)=O)c(C)c(Cc3ccccc3)n2n1` [Compound I-74] registered a melting point of 197 to 198 °C. Besides, in series [1], the IC50 was determined as 15 nM.
For `CCc1c(C(=O)C(N)=O)c2c(OCC(=O)O)cc(COc3ccc(F)cc3)nn2c1Cc1ccccc1` [Compound I-75], in that order: 215 to 216 °C and 9 nM.
For `CCc1c(C(=O)C(N)=O)c2c(OCC(=O)O)cc(COc3ccc(OC)cc3)nn2c1Cc1ccccc1` [Compound I-76], in that order: 218 to 219 °C and 6 nM.
With `CCc1c(C(=O)C(N)=O)c2c(OCC(=O)O)cc(COc3ccc(OC)c(OC)c3)nn2c1Cc1ccccc1` [Compound I-77], the melting point was 204 to 206 °C. Also, in series [1], the IC50 amounted to 10 nM.
For `CCc1c(C(=O)C(N)=O)c2c(OCC(=O)O)cc(CN3C(=O)CCC3=O)nn2c1Cc1ccccc1` [Compound I-79], in that order: 210 to 212 °C (dec.) and 464 nM.
On the same counts, the results for `CCc1c(C(=O)C(N)=O)c2c(OCC(=O)O)cc(CN=[N+]=[N-])nn2c1Cc1ccccc1` [Compound I-80] are 199 to 200 °C (dec.) and 13 nM.
